In article PMC2363984 (British Journal of Cancer, 2001):
Where two headings read alike, the source gives them in different places.

What was measured:
[1] = system: recurrent ovarian cancer; assay: Tumour responses to IP topotecan; format: in vivo, human
[2] = female, human, in vivo
[3] = human, in vivo, ip; for MRT / T1/2: female
[4] = in vivo
[5] = system: human tumor colony forming units; design: method as in Burris et al, 1992; conditions: in vitro; ref Burris et al, 1992; cited from earlier work
[6] = in vitro, 1994, cited from earlier work
[7] = system: ovarian cancer; design: method as in earlier work; conditions: patients who failed platinum based chemotherapy; ref Neijt et al, 1991; Kudelka et al, 1996; Ten Bokkel Huinink et al, 1997; cited from earlier work
[8] = cited from earlier work
[9] = cited from earlier work; remark: listed apart in the source
[10] = design: method as in Rowinsky et al, 1992; Verweij et al, 1993; Herben et al, 1996; conditions: ref Rowinsky et al, 1992, Verweij et al, 1993, Herben et al, 1996, cited from earlier work
[11] = system: DNA topoisomerase I; design: method as in Kingsbury et al, 1991; conditions: in vitro; ref Kingsbury et al, 1991; cited from earlier work
[12] = clinical; conditions: female, human, in vivo, ip
[13] = clinical; conditions: female, human, in vivo, ip, 20 mg/m2, Cmax
[14] = Phase I toxicity of IP topotecan (WHO grading)

CC[C@@]1(O)C(=O)OCc2c1cc1n(c2=O)Cc2cc3c(CN(C)C)c(O)ccc3nc2-1 [topotecan, Topotecan]
Partial responses (> 50% decrease in repeated CA125 levels) ([1]; biochemically evaluable patients): 6 of 13
Stable disease for 6-8 cycles ([1]; clinically evaluable patients): 5 of 8
Complete clinical responses ([1]; pretreated patients, IP 5-30 mg/m2): no complete clinical responses
Patients with progressive disease ([1]; three by marker and three by clinical parameters): six
Tmax (time to peak plasma level after start of IP administration) [2]: 2.7 ± 1.1 h
Dose level from which plasma concentrations required for cytotoxicity in vitro were reached ([2]; ip): ≥ 15 mg/m2
T1/2 ([2]; ip): 3.7 ± 1.3 h
MRT ([2]; ip, 20 mg/m2): 6.9 h
MRT ([3]; 10 mg/m2): 2.6 h
T1/2 ([3]; 10 mg/m2): 1.8 h
MRT ([3]; 30 mg/m2): 3.4 h
T1/2 ([3]; 30 mg/m2): 2.3 h
CL [3]: 0.8 L/h/m2
Patients with nausea and/or vomiting grade I-II ([4]; female, human): 12 patients
Platelets toxicity Grade III, worst haematologic toxicity (number) ([4]; female, human, 74 cycles): 2
Platelets toxicity Grade IV, worst haematologic toxicity (number) ([4]; female, human, 74 cycles): 0
WBC toxicity Grade III, worst haematologic toxicity (number) ([4]; female, human, 74 cycles): 5
WBC toxicity Grade IV, worst haematologic toxicity (number) ([4]; female, human, 74 cycles): 1
Duration of myelosuppression ([4]; female, human, ip): < 7 days
Recommended dose for further phase II trials ([4]; female, human, ip): 20 mg/m2
Bleeding episodes [4]: No bleeding episodes
Patients with abdominal pain grade I [4]: six
Patients with nausea and vomiting grade III [4]: three
Dose limiting toxicity (DLT) ([4]; ip): acute hypotension, chills and fever
Patients with generalized transient skin rash ([4]; ip): four
Threshold concentration for cytotoxic activity, continuous exposure [5]: 100 µg/L
Cytotoxic concentrations ([6]; ref Pizao et al): 13.7 to 229 µg/L
Cytotoxic concentration ([6]; ref Tanizawa et al): 128 µg/L
Duration of response [7]: 22-32 weeks
Recommended dosage ([8]; continuous 24-h IP infusion, ref Plaxe et al, 1998): 3 mg/m2
Dose limiting toxicity in most studies ([8]; ref Abbruzzese et al, 1993, Kantarjian et al, Rowinsky et al, 1994, Van Warmerdam et al, 1995, Hochster et al): neutropenia
Vss for lactone ([9]; IV administration, ref Herben et al): 94 L/m2
Terminal T1/2 for peritoneal topotecan ([9]; continuous IP infusion, ref Plaxe et al, 1998): 2.7 h
Form at equilibrium ([10]; pH 7.4): open-ring form predominates
Stability in infusion fluids ([10]; pH < 4.0): stable
Stability in plasma ([10]; plasma): unstable
Inhibition of DNA topoisomerase I [11]: potent inhibitor
AUC ([12]; 5 mg/m2, AUC): 81 ng·h/mL
MRT ([12]; 5 mg/m2, MRT): 7 h
half-life ([12]; 5 mg/m2, T1/2): 4.6 h
AUC ([12]; 10 mg/m2, AUC): 107 ng·h/mL
Cmax ([12]; 10 mg/m2, Cmax): 14 ng/mL
MRT ([12]; 10 mg/m2, MRT): 6.5 h
half-life ([12]; 10 mg/m2, T1/2): 3.9 h
Tmax ([12]; 10 mg/m2, Tmax): 1.7 h
Tmax ([12]; 15 mg/m2, Tmax): 1.6 h
MRT ([12]; 20 mg/m2, MRT): 8.1 h
half-life ([12]; 20 mg/m2, T1/2): 4.4 h
Tmax ([12]; 20 mg/m2, Tmax): 3 h
Cmax ([12]; 30 mg/m2, Cmax): 145 ng/mL
Tmax ([12]; 30 mg/m2, Tmax): 1.8 h
half-life ([12]; T1/2): 5.2 h
half-life ([12]; T1/2 of lactone in this study (discussion)): 5.5 h
Tmax ([12]; Tmax (time to peak plasma level after start of IP administration)): 2.1 h
Cmax [13]: 12100 ng/mL
Maximum tolerated dose (MTD) [14]: 20 mg/m2
